Measured values as given in US10457976B2, “Preparing antibodies from CHO cell cultures for conjugation” (SEATTLE GENETICS, INC., priority 2013, dated 2019).

Test system: QSOX1 sulfhydryl oxidase (oxidizing activity in lot DEVNKB-1)
Experiment: Sulfhydryl oxidizing activity of lot DEVNKB-1 with additives (ferrous oxidation xylenol orange, FOX, assay)
Format: biochemical, Chinese hamster
Experimental: Further to characterize the oxidizing activity in lot DEVNKB-1, the lot was tested for sulfhydryl oxidizing activity using the ferrous oxidation xylenol orange (FOX) assay. Sulfhydryl oxidases catalyze the following reaction: 2R—SH+O2→R—S—S—R+H2O2 As the reaction proceeds, oxygen is consumed and hydrogen peroxide is produced. The hydrogen peroxide by-product can be detected readily and reliably, and thus serves as a proxy for sulfhydryl oxidase activity. In the FOX assay, hydrogen peroxide oxidizes ferrous iron (Fe^2+) to produce ferric iron (Fe^3+). The […] complexes with xylenol orange to form a compound that absorbs 560 nm light. Thus, by monitoring absorption of 560 nm light (e.g., using a spectrophotometer), the amount of sulfhydryl oxidizing activity in a sample can be determined. The value of a negative control is compared to the value of the test sample by determining the difference in the 560 nm reading. If the resulting value is greater than 0.1 absorbance units, then the samples is positive for oxidizing impurity. […] Addition of both DEVNKB-1 and 1 mM Zn^2+, however, was only 0.008. […] This is consistent with the oxidizing agent having a flavin-dependent sulfhydryl oxidase domain, such as QSOX1.
Further assays were performed to see whether EDTA could reverse the Zn^2+-dependent elimination of oxidizing activity in lot DEVNKB-1. In these experiments, Zn^2+ was added to the assay buffer, either with or without EDTA. In addition, assay buffer having EDTA was evaluated. […] Addition of both Zn^2+ and additional EDTA, however, reduced the oxidizing activity by only 6%. Thus, the EDTA effectively reversed the Zn^2+-dependent inhibition of oxidizing activity. Again, this is what is expected for an oxidizing agent that has a flavin-dependent sulfhydryl oxidase domain, such as QSOX1.

[1] = Table 2, additive in assay buffer, with or without additional EDTA
[2] = Table 2, relative to assay buffer with additional EDTA (100%)

| Difference (absorption without minus with DEVNKB-1) (Table 1, additive 1 mM, 560 nm absorption) | Difference (absorption without minus with DEVNKB-1) (Table 1, additive 1 mM, 560 nm absorption, listed as Zn^2+) | % Activity (Table 1, additive 1 mM, relative to DEVNKB-1 without additive) [%] | Difference (absorption without minus with DEVNKB-1) [1] | % Activity [2] [%] | reduction of oxidizing activity associated with lot DEVNKB-1 (relative to assay buffer that contained additional EDTA) [%] | SMILES |
| --- | --- | --- | --- | --- | --- | --- |
| 0.0079 | 0.008 | 1 | 0.03097 | 5 | 95 | [Zn+2] [Zn2+] |
|  |  |  | 0.572 | 100 |  | O=C(O)CN(CCN(CC(=O)O)CC(=O)O)CC(=O)O [EDTA] |
